# Source: patent publication US6239171A, “Tocotrienols and tocotrienol-like compounds and methods for their use” (Lipogenics, Inc., priority 1998, dated 2001)
# Experiments:
# chickens [1] = assay: Serum cholesterol, apolipoproteins, triglycerides and glucose in chickens fed supplemented diets; type: in vivo, chicken; conditions: 4 weeks
# Source text: All assays conducted on chicken or swine serum were done following the protocols described in A. A. Qureshi et al., "Lowering Of Serum Cholesterol In Hypercholesterolemic Humans By Tocotrienols" (Palmvitee), Am. J. Clin. Nutr., 53, pp. 1021S-26S (1991). All enzymatic assays were done following the protocols described in A. A. Qureshi et al., "Effects of Cereals and Culture Filtrate of Trichoderma viride on Lipid Metabolism of Swine", Lipids, 17, pp. 924 (1982). Plasma insulin, glucagon and TNF levels were measured using radioinnumoassay kits from Ventrex Laboratories, Inc. (Portland, Me.), ICN Biomedicals, Inc. (Costa Mesa, Calif.) and Genzyme Corp. (Cambridge, Mass.), respectively. […]
# Each group of 6 chickens (6-week old female while leghorn) was administered the chick mash diet described in Example 5, supplemented with one of three different amounts of waxes (sterols), 50 ppm of TRF (prepared as in Example 2) or 5% equivalent of the methanol insoluble fraction Louisiana rice bran oil. […] The birds were fasted for a period of 14 hours prior to sacrifice (at 0800 hours). […]
# HMG-CoA reductase = target: T1, HMG-CoA reductase (Homo sapiens, UniProt P04035); assay: Hepatic HMG-CoA reductase activity in chickens fed supplemented diets; type: in vivo, chicken; conditions: 4 weeks
# T1 construct: hepatocytes isolated from livers of 8-week old female chickens; endogenous in cells; host or cells: primary chicken hepatocytes
# T1 sequence (P04035 1-888): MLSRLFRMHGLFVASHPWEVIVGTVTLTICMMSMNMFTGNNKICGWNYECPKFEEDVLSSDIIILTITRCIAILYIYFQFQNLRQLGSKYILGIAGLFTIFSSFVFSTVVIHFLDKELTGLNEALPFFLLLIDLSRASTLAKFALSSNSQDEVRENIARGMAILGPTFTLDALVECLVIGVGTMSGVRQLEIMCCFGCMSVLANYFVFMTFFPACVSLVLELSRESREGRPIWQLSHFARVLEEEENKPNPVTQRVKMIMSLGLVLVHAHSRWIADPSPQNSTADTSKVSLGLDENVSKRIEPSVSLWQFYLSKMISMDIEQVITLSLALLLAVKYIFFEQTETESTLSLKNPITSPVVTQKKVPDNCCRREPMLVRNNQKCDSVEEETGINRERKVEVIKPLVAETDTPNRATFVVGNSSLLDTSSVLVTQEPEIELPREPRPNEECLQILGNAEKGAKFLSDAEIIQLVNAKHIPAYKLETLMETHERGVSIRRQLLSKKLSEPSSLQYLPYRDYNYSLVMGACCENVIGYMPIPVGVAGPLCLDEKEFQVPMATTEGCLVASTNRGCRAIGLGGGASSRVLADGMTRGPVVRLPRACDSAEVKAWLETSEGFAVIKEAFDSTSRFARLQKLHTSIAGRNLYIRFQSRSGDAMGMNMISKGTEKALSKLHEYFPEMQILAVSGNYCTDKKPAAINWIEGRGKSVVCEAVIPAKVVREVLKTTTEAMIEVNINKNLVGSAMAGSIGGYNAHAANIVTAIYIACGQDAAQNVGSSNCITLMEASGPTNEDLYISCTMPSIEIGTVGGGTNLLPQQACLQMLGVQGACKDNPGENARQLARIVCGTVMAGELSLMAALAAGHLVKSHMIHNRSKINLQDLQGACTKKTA
# Description: (§1) This example measured the effects of the TRF and its components on the hepatic enzymatic activity of HMG-CoA reductase and cholesterol 7α-hydroxylase. […] The amount of feed consumed ranged from 11.19-11.60 g per chicken and the feeding period was 4 weeks. The birds were fasted for a period of 36 hours and refed for 48 hours prior to sacrifice (at 0800 hours).
# [2] = system: cholesterol 7α-hydroxylase; assay: Hepatic cholesterol 7α-hydroxylase activity in chickens fed supplemented diets; type: in vivo, chicken; conditions: control diet + 50 ppm, 4 weeks
# Description: as §1
# [3] = system: hypercholesterolemic swine; assay: Total cholesterol, triglyceride and glucose concentrations in tissues of hypercholesterolemic swine; type: in vivo
# Description: Each group of three 5-month old swine was administered either a control diet or a control diet supplemented with 50 ppm of TRF or 50 ppm of an individual tocotrienol. […] After a 12 hour fast, serum and plasma samples were taken a 0 hrs, 21 days and 42 days from the start of the feeding period. After taking serum and plasma samples from the pigs at the end of the 42 day period, all of the swine were fasted for a total of 40 hours, followed by a 48 hour refeeding period. One swine from each group was sacrificed at that time and the liver, intestine, lung, heart, loin muscle, adipose tissue and ham muscle were removed.
# We next determined the effect of tocotrienols on the total cholesterol, triglyceride and glucose concentrations in various tissues of hypercholesterolemic swine.
# chickens [4] = assay: Antibody titers to sheep red blood cells in chickens; type: in vivo, chicken; conditions: 4 weeks
# [5] = control diet + 50 ppm, sheep red blood cells i.p.
structure (smiles),measurement,setting,value
"CC(C)=CCC/C(C)=C/CC/C(C)=C/CCC1CCc2cc(O)ccc2O1 (stereo not shown) [P25, 3,4-dihydro-2-(4,8,12-trimethyltrideca-3'(E),7'(E),11'-trienyl)-2H-1-benzopyran-6-ol]",increase in the HDL-/LDL-cholesterol ratio,chickens [1]; 50 ppm in diet,> 100%
same,rank as cholesterol inhibitor among compounds tested (in words),chickens [1]; 50 ppm in diet,most potent cholesterol inhibitors
same,reduction of serum cholesterol,chickens [1]; 50 ppm in diet,~33%
same,"APO A1, percentage of control",chickens [1]; control diet + 50 ppm,98.78%
same,APO A1 in serum,chickens [1]; control diet + 50 ppm,138.70 mg/100 ml
same,APO B in serum,chickens [1]; control diet + 50 ppm,25.20 mg/100 ml
same,"APO B, percentage of control",chickens [1]; control diet + 50 ppm,76.13%
same,DL-Cholesterol/Total Cholesterol,chickens [1]; control diet + 50 ppm,0.73
same,"DL-Cholesterol/Total Cholesterol, percentage of control",chickens [1]; control diet + 50 ppm,125.30%
same,Glucose in serum,chickens [1]; control diet + 50 ppm,196.10 mg/100 ml
same,"Glucose, percentage of control",chickens [1]; control diet + 50 ppm,87.43%
same,HDL-Cholesterol in serum,chickens [1]; control diet + 50 ppm,70.12 ± 1.25 mg/dL
same,"HDL-Cholesterol, percentage of control",chickens [1]; control diet + 50 ppm,53.82%
same,HDL-Cholesterol/LDL-Cholesterol,chickens [1]; control diet + 50 ppm,3.05
same,"HDL-Cholesterol/LDL-Cholesterol, percentage of control",chickens [1]; control diet + 50 ppm,200.60%
same,LDL-Cholesterol in serum,chickens [1]; control diet + 50 ppm,23.00 ± 1.27 mg/dL
same,"LDL-Cholesterol, percentage of control",chickens [1]; control diet + 50 ppm,41.77%
same,Total Cholesterol in serum,chickens [1]; control diet + 50 ppm,95.51 ± 1.11 mg/dL
same,"Total Cholesterol, percentage of control",chickens [1]; control diet + 50 ppm,66.90%
same,Triglycerides in serum,chickens [1]; control diet + 50 ppm,54.65 mg/100 ml
same,"Triglycerides, percentage of control",chickens [1]; control diet + 50 ppm,73.82%
same,reduction of enzymatic activity of HMG-CoA reductase,HMG-CoA reductase; 50 ppm in diet,about 28%
same,"HMG-CoA Reductase, percentage of control",HMG-CoA reductase; control diet + 50 ppm,71.33%
same,"Cholesterol 7α-Hydroxylase, percentage of control",[2],111.45%
same,Cholesterol 7α-hydroxylase,[2],11.39 nmol/min/mg
same,reduction of total cholesterol concentration in the ham muscle,[3]; 50 ppm in diet,30%
same,reduction of total cholesterol concentration in the liver,[3]; 50 ppm in diet,37%
same,"TOTAL CHOLESTEROL CONCENTRATION, Adipose Tissue","[3]; control diet + 50 ppm, 42 days",89.54 mg/100 gm
same,"TOTAL CHOLESTEROL CONCENTRATION, Ham Muscle","[3]; control diet + 50 ppm, 42 days",69.17 mg/100 gm
same,"TOTAL CHOLESTEROL CONCENTRATION, Heart","[3]; control diet + 50 ppm, 42 days",51.53 mg/100 gm
same,"TOTAL CHOLESTEROL CONCENTRATION, Intestine","[3]; control diet + 50 ppm, 42 days",176.67 mg/100 gm
same,"TOTAL CHOLESTEROL CONCENTRATION, Liver","[3]; control diet + 50 ppm, 42 days",125.21 mg/100 gm
same,"TOTAL CHOLESTEROL CONCENTRATION, Loin Muscle","[3]; control diet + 50 ppm, 42 days",99.04 mg/100 gm
same,"TOTAL CHOLESTEROL CONCENTRATION, Lung","[3]; control diet + 50 ppm, 42 days",68.5 mg/100 gm
same,"TOTAL CHOLESTEROL, Adipose Tissue, percentage of control","[3]; control diet + 50 ppm, 42 days",81.85%
same,"TOTAL CHOLESTEROL, Ham Muscle, percentage of control","[3]; control diet + 50 ppm, 42 days",69.17%
same,"TOTAL CHOLESTEROL, Heart, percentage of control","[3]; control diet + 50 ppm, 42 days",82.79%
same,"TOTAL CHOLESTEROL, Intestine, percentage of control","[3]; control diet + 50 ppm, 42 days",81.98%
same,"TOTAL CHOLESTEROL, Liver, percentage of control","[3]; control diet + 50 ppm, 42 days",62.11%
same,"TOTAL CHOLESTEROL, Loin Muscle, percentage of control","[3]; control diet + 50 ppm, 42 days",81.85%
same,"TOTAL CHOLESTEROL, Lung, percentage of control","[3]; control diet + 50 ppm, 42 days",66.98%
same,"TOTAL GLUCOSE CONCENTRATION, Adipose Tissue","[3]; control diet + 50 ppm, 42 days",14.96 mg/100 gm
same,"TOTAL GLUCOSE CONCENTRATION, Ham Muscle","[3]; control diet + 50 ppm, 42 days",53.05 mg/100 gm
same,"TOTAL GLUCOSE CONCENTRATION, Heart","[3]; control diet + 50 ppm, 42 days",45.49 mg/100 gm
same,"TOTAL GLUCOSE CONCENTRATION, Intestine","[3]; control diet + 50 ppm, 42 days",56.06 mg/100 gm
same,"TOTAL GLUCOSE CONCENTRATION, Liver","[3]; control diet + 50 ppm, 42 days",362.99 mg/100 gm
same,"TOTAL GLUCOSE CONCENTRATION, Loin Muscle","[3]; control diet + 50 ppm, 42 days",53.01 mg/100 gm
same,"TOTAL GLUCOSE CONCENTRATION, Lung","[3]; control diet + 50 ppm, 42 days",60.96 mg/100 gm
same,"TOTAL GLUCOSE, Adipose Tissue, percentage of control","[3]; control diet + 50 ppm, 42 days",81.57%
same,"TOTAL GLUCOSE, Ham Muscle, percentage of control","[3]; control diet + 50 ppm, 42 days",98.57%
same,"TOTAL GLUCOSE, Heart, percentage of control","[3]; control diet + 50 ppm, 42 days",92.37%
same,"TOTAL GLUCOSE, Intestine, percentage of control","[3]; control diet + 50 ppm, 42 days",77.89%
same,"TOTAL GLUCOSE, Liver, percentage of control","[3]; control diet + 50 ppm, 42 days",89.58%
same,"TOTAL GLUCOSE, Loin Muscle, percentage of control","[3]; control diet + 50 ppm, 42 days",74.41%
same,"TOTAL GLUCOSE, Lung, percentage of control","[3]; control diet + 50 ppm, 42 days",91.08%
same,"TOTAL TRIGLYCERIDES CONCENTRATION, Adipose Tissue","[3]; control diet + 50 ppm, 42 days",259.62 mg/100 gm
same,"TOTAL TRIGLYCERIDES CONCENTRATION, Ham Muscle","[3]; control diet + 50 ppm, 42 days",182.98 mg/100 gm
same,"TOTAL TRIGLYCERIDES CONCENTRATION, Heart","[3]; control diet + 50 ppm, 42 days",140.51 mg/100 gm
same,"TOTAL TRIGLYCERIDES CONCENTRATION, Intestine","[3]; control diet + 50 ppm, 42 days",345.37 mg/100 gm
same,"TOTAL TRIGLYCERIDES CONCENTRATION, Liver","[3]; control diet + 50 ppm, 42 days",384.00 mg/100 gm
same,"TOTAL TRIGLYCERIDES CONCENTRATION, Loin Muscle","[3]; control diet + 50 ppm, 42 days",189.18 mg/100 gm
same,"TOTAL TRIGLYCERIDES CONCENTRATION, Lung","[3]; control diet + 50 ppm, 42 days",163.42 mg/100 gm
same,"TOTAL TRIGLYCERIDES, Adipose Tissue, percentage of control activity","[3]; control diet + 50 ppm, 42 days",59.59%
same,"TOTAL TRIGLYCERIDES, Ham Muscle, percentage of control activity","[3]; control diet + 50 ppm, 42 days",98.44%
same,"TOTAL TRIGLYCERIDES, Heart, percentage of control activity","[3]; control diet + 50 ppm, 42 days",97.43%
same,"TOTAL TRIGLYCERIDES, Intestine, percentage of control activity","[3]; control diet + 50 ppm, 42 days",96.57%
same,"TOTAL TRIGLYCERIDES, Liver, percentage of control activity","[3]; control diet + 50 ppm, 42 days",89.44%
same,"TOTAL TRIGLYCERIDES, Loin Muscle, percentage of control activity","[3]; control diet + 50 ppm, 42 days",86.12%
same,"TOTAL TRIGLYCERIDES, Lung, percentage of control activity","[3]; control diet + 50 ppm, 42 days",95.03%
same,total antibody titer and IgM titer compared to the control (in words),chickens [4]; 50 ppm in diet,increased
same,IgG antibody titers in serum,chickens [4]; [5],2.43 ± 1.40 Log 2
same,IgM antibody titers in serum,chickens [4]; [5],8.92 Log 2
same,Total Ab titers in serum,chickens [4]; [5],10.30 ± 1.16 Log 2
